According to patent US20230131248A1, “A SKIN TEST PLATFORM FORMED FROM A COMPOSITE MATERIAL” (Nanyang Technological University, priority 2020, published 2023):

Assay: Penetration of niacinamide and glycerin into silk artificial epidermis (cross-sectional Raman spectroscopy)
Assay type: in vitro ADME
Settings: applied on surface for 30 min and 4 h
Procedure: LabRAM Soleil™ Raman spectroscopy was used to measure the penetration of compounds into the silk film. The silk artificial epidermis was first immersed in water for 10 min. Then, the silk artificial epidermis was taken out and wiped with a wiper to remove surface water. Next, niacinamide or glycerin was applied on the surface of the silk artificial epidermis and left to sit for 30 min or 4 h. Finally, the resultant sample was taken for cross-sectional Raman spectroscopy to determine the penetration of the chemicals into silk artificial epidermis.

Row | SMILES | penetration depth into silk artificial epidermis
1 | OCC(O)CO [glycerin] | penetrate into half-depth
2 | NC(=O)c1cccnc1 [niacinamide] | penetrate into half-depth
